One molecule from US7700652B2, “Treating urinary incontinence using prodrugs of GABA analogs” (XenoPort, Inc., priority 2003, dated 2010) can be followed below.

The nature of this data set: drug release from the osmotic sustained release dosage form in artificial gastric fluid. The format is physicochemical. The note with it: sustained release oral osmotic dosage form of Example 1 (700 mg drug composition per bilayer core, one 10 mil passageway). As for the experimental part: Next, one 10 mil (0.254 mm) exit passageway is mechanically drilled through the semipermeable wall to connect the drug layer with the exterior of the dosage system. The residual solvent is removed by first drying for 120 hours at 50° C. and 30% relative humidity, then the systems are dried for 2 hours at 50° C. to remove excess moisture. The drug dosage form produced by this process provides: ˜90 wt % 1-{[(α-isobutanoyloxyethoxy)carbonyl]aminomethyl}-1-cyclohexane acetic acid, 4 wt % hydroxypropylmethylcellulose (11,200 molecular weight), 4 wt % polyethylene oxide of 5,000,000 molecular weight and 1 wt % magnesium stearate in the drug layer. The push composition comprises […] polyethylene oxide (7,500,000 molecular weight) 30 wt % sodium chloride, 5 wt % hydroxypropylmethylcellulose (11,200 molecular weight) 1 wt % red ferric oxide, 0.25 wt % magnesium stearate, and 0.075 wt % of butylated hydroxytoluene. The wall comprises 100 wt % cellulose acetate comprising a ˜40% acetyl content. The dosage form has one passageway, 10 mils (0.254 mm), and it has a 1-{[(α-isobutanoyloxyethoxy)carbonyl]aminomethyl}-1-cyclohexane acetic acid release rate of >20 mg/hr and a half life for drug release of >8 hours in artificial gastric fluid.

`CC(OC(=O)NCC1(CC(=O)O)CCCCC1)OC(=O)C(C)C` (stereo not drawn) [1-{[(α-isobutanoyloxyethoxy)carbonyl]aminomethyl}-1-cyclohexane acetic acid] yielded a release rate greater than 20 mg/h.
